From ChEMBL document CHEMBL3046008, “Phenolics and their antifungal role in grapevine wood decay: focus on the Botryosphaeriaceae family” (J Agric Food Chem, 2012)
Active and inactive are the calls of the source. The calls are words filed in the database; no cut-off is given here.

Experiments:
Phaeoacremonium minimum = experiment: Antifungal activity against Togninia minima SO21 assessed as susceptibility at 500 uM measured after 1 to 10 days; assay type: functional, organism-based
Eutypa lata [1] = experiment: Induction of Eutypa lata BX1-10 growth at 500 uM; assay type: functional, organism-based
Neofusicoccum parvum [2] = experiment: Antifungal activity against Neofusicoccum parvum assessed as growth inhibition measured after 1 to 10 days; assay type: functional, organism-based
Diplodia seriata [3] = experiment: Antifungal activity against Diplodia seriata assessed as mycelium seemed to be halted measured after 2 days environmental scanning electron microscopy; assay type: functional, organism-based
Neofusicoccum parvum [4] = experiment: Antifungal activity against Neofusicoccum parvum assessed as growth inhibition at 500 uM measured after 1 to 10 days relative to control; assay type: functional
Diplodia seriata [5] = experiment: Antifungal activity against Diplodia seriata assessed as mycelium denser around the initial plug and colonizing measured after 2 days by macroscopic analysis; assay type: functional, organism-based
Diplodia seriata [6] = experiment: Antifungal activity against Diplodia seriata assessed as growth inhibition at 500 uM measured after 1 to 10 days relative to control; assay type: functional
Eutypa lata [7] = experiment: Antifungal activity against Eutypa lata BX1-10 assessed as growth inhibition measured after 1 to 10 days; assay type: functional, organism-based
Diplodia seriata [8] = experiment: Antifungal activity against Diplodia seriata assessed as growth inhibition measured after 1 to 10 days; assay type: functional, organism-based
Eutypa lata [9] = experiment: Antifungal activity against Eutypa lata BX1-10 assessed as growth inhibition at 500 uM measured after 1 to 10 days relative to control; assay type: functional
[10] = tested on: Phaeomoniella chlamydospora; experiment: Antifungal activity against Phaeomoniella chlamydospora assessed as growth inhibition at 500 uM measured after 1 to 10 days relative to control; assay type: functional

| Structure (SMILES) | Activity (Phaeoacremonium minimum) | growth inhibition (GI) (Neofusicoccum parvum [4]) | growth inhibition (GI) (Diplodia seriata [6]) | other results |
| --- | --- | --- | --- | --- |
| COc1cc(C(=O)O)cc(OC)c1O | inactive |  |  |  |
| O=C(O[C@@H]1Cc2c(O)cc(O)cc2O[C@@H]1c1ccc(O)c(O)c1)c1cc(O)c(O)c(O)c1 | inactive |  |  |  |
| O=c1c(O)c(-c2ccc(O)c(O)c2)oc2cc(O)cc(O)c12 | inactive |  |  | Activity (Eutypa lata [1]): Active |
| COc1cc(/C=C/c2ccc(O)cc2)cc(OC)c1 [PTEROSTILBENE] | inactive | Active | Active | IC50 (Neofusicoccum parvum [2]): 250 µM; Activity (Diplodia seriata [3]): Active; Activity (Diplodia seriata [5]): Active; IC50 (Eutypa lata [7]): 251 µM; IC50 (Diplodia seriata [8]): 163 µM |
| COc1cc(/C=C/C(=O)O)ccc1O [FERULATE] | inactive |  |  | fold change (FC) (Eutypa lata [9]): 2.2; fold change (FC) [10]: 1.4; fold change (FC) (Neofusicoccum parvum [4]): 1.5; fold change (FC) (Diplodia seriata [6]): 1.6 |
| Oc1ccc(/C=C/c2cc(O)cc3c2[C@@H](c2cc(O)cc(O)c2)[C@H](c2ccc(O)cc2)O3)cc1 [EPSILON-VINIFERIN] | inactive | Active | Active | IC50 (Diplodia seriata [8]): 260 µM |
| O=C(O)/C=C/c1ccc(O)cc1 | inactive |  |  |  |
| O=c1c(O)c(-c2ccc(O)cc2)oc2cc(O)cc(O)c12 | inactive |  |  | growth inhibition (GI) (Eutypa lata [9]): inactive |
| O=C(O)c1cc(O)c(O)c(O)c1 | inactive |  |  |  |
| Oc1ccc([C@H]2c3c(O)cc(O)cc3[C@H]3c4c(cc(O)cc4[C@@H]2c2cc(/C=C/c4cc(O)cc5c4[C@H](c4cc(O)cc(O)c4)[C@@H](c4ccc(O)cc4)O5)ccc2O)O[C@@H]3c2ccc(O)cc2)cc1 | inactive | Active | Active |  |
| Oc1ccc([C@H]2Oc3cc(O)cc(/C=C/c4ccc5c(c4)[C@@H](c4cc(O)cc6c4[C@H](c4cc(O)cc(O)c4)[C@@H](c4ccc(O)cc4)O6)[C@H](c4ccc(O)cc4)O5)c3[C@@H]2c2cc(O)cc(O)c2)cc1 | inactive | Active | Active |  |
| Oc1cc(O)c2c(c1)O[C@H](c1ccc(O)c(O)c1)[C@H](O)C2 | inactive |  |  |  |
| Oc1ccc(/C=C/c2cc(O)cc(O)c2)cc1 [RESVERATROL] | inactive |  |  | fold change (FC) (Eutypa lata [9]): 1.7; fold change (FC) (Neofusicoccum parvum [4]): 1.1; fold change (FC) (Diplodia seriata [6]): 1.6 |
| Oc1cc(O)cc(/C=C/c2ccc(O)c(O)c2)c1 [PICEATANNOL] | inactive | Active | Active | IC50 (Diplodia seriata [8]): 299 µM |
| O=C(/C=C/c1ccc(O)c(O)c1)O[C@@H]1C[C@](O)(C(=O)O)C[C@@H](O)[C@H]1O | inactive |  |  |  |
| Oc1ccc([C@H]2c3c(O)cc(O)cc3[C@H]3c4c(cc(O)cc4[C@@H]2O)O[C@@H]3c2ccc(O)cc2)cc1 | inactive | Active | Active |  |
| O=C(O)/C=C/c1ccc(O)c(O)c1 | inactive |  |  |  |
| COc1cc(C(=O)O)ccc1O | inactive |  |  |  |
| COc1cc(/C=C/C(=O)O)cc(OC)c1O | inactive |  |  |  |
| Oc1cc(O)c2c(c1)O[C@H](c1ccc(O)c(O)c1)[C@@H](O)C2 | inactive |  |  |  |
| OC[C@H]1O[C@@H](Oc2cc(O)cc(/C=C/c3ccc(O)cc3)c2)[C@H](O)[C@@H](O)[C@@H]1O | inactive | Active | Active |  |
